Patent US20230312577A1, “DUAL KINASE-BROMODOMAIN INHIBITORS” (MONASH UNIVERSITY, priority 2020, published 2023)

Columns and labels:
[1] = target: GST-BRD4 (binding domain 1, amino acids 44-168) (Homo sapiens, UniProt O60885); assay: Bromodomain binding assay (FRET); details: for IC50: BRD4 binding domain 1, tetracetylated histone 4 peptide
Method: Inhibition of bromodomain binding was measured using a FRET (fluorescence resonance energy transfer) based assay. […] In the presence of the two detection reagents, streptavidin D2 and anti-GST-Eu (CisBio) binding trig-gers a FRET signal detected by fluorescence at 665 nm as measured using a Pherastar reader (BMG Labtech). Data was analysed using GraphPad Prism version 8.00 for Windows, (GraphPad Software, San Diego California USA) in order to calculate the IC50. Standard deviations for the calculated IC50's are within 25% of the mean.

PI3K = target: T1, PI3K; assay: PI3K enzyme activity assay (luminescence, ATP consumption, Kinase-Glo); format: biochemical; details: 10 μM ATP, 180 μM phosphatidyl inositol, 60 min
T1 construct: PI3K Enzyme Activity Assay IC50 (nM); other: 10 μM ATP, 180 μM phosphatidyl inositol, 60 min
Method: PI3K activity was determined using a luminescence assay measuring ATP consumption as described previously (J.-A. Pinson, Z. Zheng, M. S. Miller, D. K. Chalmers, I. G. Jennings, P. E. Thompson, L-Aminoacyl-triazine derivatives are isoform-selective PI3Kβ inhibitors that target nonconserved Asp862 of PI3Kb, ACS Med. Chem. Lett. 4 (2013) 206-210). PI3K enzyme activity was determined in 25 μl of 20 mM HEPES pH 7.5, 5 mM MgCl2 with 180 μM phosphatidyl inositol and 10 μMATP. After a 60 min incubation at room temperature the reaction was stopped by the addition of Kinase-Glo (Promega) followed by a further 15 min incubation. Luminescence was then read using a Fluostar plate reader (BMGLabtech).
Inhibitors were diluted in 20% (v/v) DMSO at the indicated concentrations in order to generate a concentration versus inhibition of enzyme activity curve which was then analysed using GraphPad Prism version 8.00 for Windows, (GraphPad Software, San Diego California USA) in order to calculate the IC50. Standard deviations for the calculated IC50's are within 25% of the mean.

OPM2 cells = assay: Cell proliferation assay (ViaLight, cellular ATP); format: cell-based; details: Homo sapiens, OPM-2, 120 h, 5 days, 5 μM to 1 nM
Method: OPM2 cells (1×10^3) were plated in a 96 well plate. Test compounds were added to cells at final concentrations ranging from 5 μM to 1 nM. They were incubated for 5 days before they were analysed using ViaLight luminescence-based proliferation assays which detect cellular ATP, as per the manufacturer's instructions. All samples were prepared in technical triplicates. Data analysis was performed in GraphPad Prism version 7.00 for Mac OS X, (GraphPad Software, San Diego California USA) in order to calculate the GI50.

| Structure (SMILES) | IC50 [1] [nM] | IC50 (PI3K) [nM] | GI50 (OPM2 cells) [nM] | selectivity (BRD-4) [1] |
| --- | --- | --- | --- | --- |
| CC(=O)N1c2ccc(-c3ccc(C(=O)N4CCN(C(=O)c5cn6cc(-c7cnc(N)nc7)nc(N7CCOCC7)c6n5)CC4)cc3)cc2CCC1C (centres unmarked) [Cpd 001, 1-(6-(4-(4-(6-(2-Aminopyrimidin-5-yl)-8-morpholinoimidazo[1,2-a]pyrazine-2-carbonyl)piperazine-1-carbonyl)phenyl)-2-methyl-3,4-dihydroquinolin-1(2H)-yl)ethan-1-one] | > 500 | > 500 | 100 to 500 |  |
| CC(=O)N1c2ccc(-c3ccc(CNC(=O)c4cn5cc(-c6cnc(N)nc6)nc(N6CCOCC6)c5n4)cc3)cc2CCC1C (centres unmarked) [Cpd 002, N-(4-(1-Acetyl-2-methyl-1,2,3,4-tetrahydroquinolin-6-yl)benzyl)-6-(2-aminopyrimidin-5-yl)-8-morpholinoimidazo[1,2-a]pyrazine-2-carboxamide] | 100 to 500 | ≤ 100 | ≤ 100 |  |
| CC(=O)N1c2ccc(-c3ccc(CNC(=O)CNC(=O)c4cn5cc(-c6cnc(N)nc6)nc(N6CCOCC6)c5n4)cc3)cc2CCC1C (centres unmarked) [Cpd 003, N-(2-((4-(1-Acetyl-2-methyl-1,2,3,4-tetrahydroquinolin-6-yl)benzyl)amino)-2-oxoethyl)-6-(2-aminopyrimidin-5-yl)-8-morpholinoimidazo[1,2-a]pyrazine-2-carboxamide] | > 500 | ≤ 100 | 100 to 500 |  |
| CC(=O)N1c2ccc(-c3ccc(CN4CCN(C(=O)c5cn6cc(-c7cnc(N)nc7)nc(N7CCOCC7)c6n5)CC4)s3)cc2CCC1C (centres unmarked) [Cpd 004, 1-(6-(5-((4-(6-(2-Aminopyrimidin-5-yl)-8-morpholinoimidazo[1,2-a]pyrazine-2-carbonyl)piperazin-1-yl)methyl)thiophen-2-yl)-2-methyl-3,4-dihydroquinolin-1(2H)-yl)ethan-1-one] | 100 to 500 | 100 to 500 |  |  |
| CC(=O)N1c2ccc(-c3ccc(CNC(=O)c4cn5cc(-c6cnc(N)nc6)nc(N6CCOCC6)c5n4)s3)cc2CCC1C (centres unmarked) [Cpd 005, N-((5-(1-Acetyl-2-methyl-1,2,3,4-tetrahydroquinolin-6-yl)thiophen-2-yl)methyl)-6-(2-aminopyrimidin-5-yl)-8-morpholinoimidazo[1,2-a]pyrazine-2-carboxamide] | 100 to 500 | ≤ 100 | ≤ 100 |  |
| CC(=O)N1c2ccc(-c3ccc(C(=O)CN4CCN(C(=O)c5cn6cc(-c7cnc(N)nc7)nc(N7CCOCC7)c6n5)CC4)cc3)cc2CCC1C (centres unmarked) [Cpd 007, 1-(4-(1-acetyl-2-methyl-1,2,3,4-tetrahydroquinolin-6-yl)phenyl)-2-(4-(6-(2-aminopyrimidin-5-yl)-8-morpholinoimidazo[1,2-a]pyrazine-2-carbonyl)piperazin-1-yl)ethan-1-one] | > 500 | ≤ 100 |  |  |
| CC(=O)N1c2ccc(-c3ccc(C(=O)CNC(=O)c4cn5cc(-c6cnc(N)nc6)nc(N6CCOCC6)c5n4)cc3)cc2CCC1C (centres unmarked) [Cpd 008, N-(2-(4-(1-Acetyl-2-methyl-1,2,3,4-tetrahydroquinolin-6-yl)phenyl)-2-oxoethyl)-6-(2-aminopyrimidin-5-yl)-8-morpholinoimidazo[1,2-a]pyrazine-2-carboxamide] | > 500 | ≤ 100 |  |  |
| CC(=O)N1c2ccc(-c3ccc(CNC(=O)c4nc5c(N6CCOCC6)nc(-c6cnc(N)nc6)cn5c4C)cc3)cc2CC[C@@H]1C [Cpd 020, (S)-N-(4-(1-acetyl-2-methyl-1,2,3,4-tetrahydroquinolin-6-yl)benzyl)-6-(2-aminopyrimidin-5-yl)-3-methyl-8-morpholinoimidazo[1,2-a]pyrazine-2-carboxamide] |  | ≤ 100 | ≤ 100 |  |
| CC(=O)N1c2ccc(-c3ccc(C(=O)NCCNC(=O)c4nc5c(N6CCOCC6)nc(-c6cnc(N)nc6)cn5c4C)cc3)cc2CC[C@@H]1C [Cpd 021, (S)-N-(2-(4-(1-Acetyl-2-methyl-1,2,3,4-tetrahydroquinolin-6-yl)benzamido)ethyl)-6-(2-aminopyrimidin-5-yl)-3-methyl-8-morpholinoimidazo[1,2-a]pyrazine-2-carboxamide] |  | ≤ 100 | ≤ 100 |  |
| CC(=O)N1c2ccc(-c3ccc(C(=O)NCc4cc5nc(-c6cnc(N)nc6)nc(N6CCOCC6)c5s4)cc3)cc2CC[C@@H]1C [Cpd 026, (S)-4-(1-Acetyl-2-methyl-1,2,3,4-tetrahydroquinolin-6-yl)-N-((2-(2-aminopyrimidin-5-yl)-4-morpholinothieno[3,2-d]pyrimidin-6-yl)methyl)benzamide] |  | 100 to 500 | ≤ 100 |  |
| CC(=O)N1c2ccc(-c3ccc(CC(=O)NCc4cc5nc(-c6cnc(N)nc6)nc(N6CCOCC6)c5s4)cc3)cc2CC[C@@H]1C [Cpd 027, (S)-2-(4-(1-Acetyl-2-methyl-1,2,3,4-tetrahydroquinolin-6-yl)phenyl)-N-((2-(2-aminopy-rimidin-5-yl)-4-morpholinothieno[3,2-d]pyrimidin-6-yl)methyl)acetamide] |  | ≤ 100 | 100 to 500 |  |
| CC(=O)N1c2ccc(-c3ccc(C(=O)N4CCN(Cc5cc6nc(-c7cnc(N)nc7)nc(N7CCOCC7)c6s5)CC4)cc3)cc2CC[C@@H]1C [Cpd 028, (S)-1-(6-(4-(4-((2-(2-Aminopyrimidin-5-yl)-4-morpholinothieno[3,2-d]pyrimidin-6-yl)methyl)piperazine-1-carbonyl)phenyl)-2-methyl-3,4-dihydroquinolin-1(2H)-yl)ethan-1-one] |  | 100 to 500 | 100 to 500 |  |
| CC(=O)N1c2ccc(-c3ccc(CN4CCN(Cc5cc6nc(-c7cnc(N)nc7)nc(N7CCOCC7)c6s5)CC4)cc3)cc2CC[C@@H]1C [Cpd 029, (S)-1-(6-(4-((4-((2-(2-Aminopyrimidin-5-yl)-4-morpholinothieno[3,2-d]pyrimidin-6-yl)methyl)piperazin-1-yl)methyl)phenyl)-2-methyl-3,4-dihydroquinolin-1(2H)-yl)ethan-1-one] |  | 100 to 500 | 100 to 500 |  |
| CC(=O)N1c2ccc(-c3ccc(CNC(=O)c4cc5nc(-c6cnc(N)nc6)nc(N6CCOCC6)c5s4)cc3)cc2CC[C@@H]1C [Cpd 030, (S)-N-(4-(1-acetyl-2-methyl-1,2,3,4-tetrahydroquinolin-6-yl)benzyl)-2-(2-aminopyrimidin-5-yl)-4-morpholinothieno[3,2-d]pyrimidine-6-carboxamide] |  | > 500 | ≤ 100 |  |
| CC(=O)N1c2ccc(-c3ccc(C(=O)NCCNC(=O)c4cc5nc(-c6cnc(N)nc6)nc(N6CCOCC6)c5s4)cc3)cc2CC[C@@H]1C [Cpd 031, (S)-N-(2-(4-(1-Acetyl-2-methyl-1,2,3,4-tetrahydroquinolin-6-yl)benzamido)ethyl)-2-(2-aminopyrimidin-5-yl)-4-morpholinothieno[3,2-d]pyrimidine-6-carboxamide] |  | 100 to 500 | ≤ 100 |  |
| CC(=O)N1c2ccc(-c3ccc(CNC(=O)c4sc5c(N6CCOCC6)nc(-c6cnc(N)nc6)nc5c4C)cc3)cc2CC[C@@H]1C [Cpd 032, (S)-N-(4-(1-acetyl-2-methyl-1,2,3,4-tetrahydroquinolin-6-yl)benzyl)-2-(2-aminopyrimidin-5-yl)-7-methyl-4-morpholinothieno[3,2-d]pyrimidine-6-carboxamide] |  | > 500 | ≤ 100 |  |
| CC(=O)N1c2ccc(-c3ccc(C(=O)NCCNC(=O)c4sc5c(N6CCOCC6)nc(-c6cnc(N)nc6)nc5c4C)cc3)cc2CC[C@@H]1C [Cpd 033, (S)-N-(2-(4-(1-Acetyl-2-methyl-1,2,3,4-tetrahydroquinolin-6-yl)benzamido)ethyl)-2-(2-aminopyrimidin-5-yl)-7-methyl-4-morpholinothieno[3,2-d]pyrimidine-6-carboxamide] |  | ≤ 100 | ≤ 100 |  |
| CC(=O)N1c2ccc(-c3ccc(CNC(=O)c4cn5cc(-c6cnc(N)nc6)nc(N6CCNCC6)c5n4)cc3)cc2CC[C@@H]1C.Cl [Cpd 035, (S)-N-(4-(1-acetyl-2-methyl-1,2,3,4-tetrahydroquinolin-6-yl)benzyl)-6-(2-aminopyrimidin-5-yl)-8-(piperazin-1-yl)imidazo[1,2-a]pyrazine-2-carboxamide hydrochloride] |  |  | ≤ 100 | selective BRD-4 inhibitor |
| CC(=O)N1c2ccc(-c3ccc(CNC(=O)c4cc5nc(-c6cnc(N)nc6)cc(N6CCOCC6)n5n4)cc3)cc2CC[C@@H]1C [Cpd 075, (S)-N-(4-(1-Acetyl-2-methyl-1,2,3,4-tetrahydroquinolin-6-yl)benzyl)-5-(2-aminopyrimidin-5-yl)-7-morpholinopyrazolo[1,5-a]pyrimidine-2-carboxamide] |  |  | ≤ 100 |  |
